Where two headings read alike, the source gives them in different places.
What was measured:
[1] = literature values, plasma or serum of adult humans when possible; ref 68-88 (per drug, Table 2 Cmax Reference); cited from earlier work
HepG2 cells [2] = assay: Glu/Gal assay: cellular ATP (CellTiter-Glo) after 24 h in glucose or galactose media; details: for Effect on cell viability / ATP in Glu and Gal media (in words): 24 h incubation, top concentration; for AC50 / minimal effective concentration: Homo sapiens, HepG2, 24 h
HepG2 cells [3] = assay: Acute extracellular flux (AEF) assay in intact HepG2 cells (Seahorse XFe96); assay type: cell-based, human; details: Homo sapiens
CII-linked respiration = details: read-out: CII-linked respiration IC50, cited from earlier work
CI-linked respiration = details: read-out: CI-linked respiration IC50, cited from earlier work
[4] = tested on: rPFO permeabilized HepG2 cells; assay: Mitochondrial respiratory complexes in rPFO permeabilized HepG2 cells (Seahorse XF); details: for AC50: Homo sapiens, HepG2, read-out: Pyruvate Respiration AC50
respiratory CI = tested on: respiratory CI; design: method as in PMID 9309697; details: human brain cortex; read-out: CI inhibition IC50; cited from earlier work
[5] = tested on: rat liver mitochondria (CII-linked respiration); assay: High-resolution respirometry, MMP and ROS in isolated rat liver mitochondria (Oroboros O2k); assay type: biochemical; details: for % MMP / % O2 consumption: basal succinate-driven respiration, normalized to control; for Mode of action on respiration in isolated RLM (in words): CII-linked respiration
Procedure: Mitochondria were isolated from adult Wistar Rat liver. […] The liver was homogenized with 10 passes in a loose-fitting homogenizer, followed by 10 passes in a tight-fitting homogenizer, and filtered through muslin. The tissue homogenate was then centrifuged at 1000× g for 10 min at 4 °C and the supernatants were further centrifuged at 10,000× g for 10 min. The centrifugation steps were repeated, preserving the pellet. […] Protein concentration was determined using the Bradford method with bovine serum albumin as the standard. The Oroboros® Oxygraph-2K (Oroboros Instruments, Innsbruck, Austria) was used to simultaneously analyze high-resolution respirometry and mitochondrial membrane potential (MMP). […] At the beginning of each experiment, the O2k chambers were filled with 2 mL of reaction buffer (200 mM sucrose, 25 mM KCl, 5 mM MgCl2, 4 mM KH2PO4, 5 mM MOPS, pH 7.4) and equilibrated with air at 37 °C. During the experiments, the incubation chambers were kept at constant temperature by Peltier control (±0.001 °C) and the medium was stirred using white PVDF-coated stirrers (750 rpm). […] This was followed by serial additions of the drugs to assess their dose-dependent effect on the MMP and mitochondrial respiration. Injection of RLM results in an uptake of safranin and a corresponding decline in the fluorescence signal.

[6] = HepG2, minimum effective concentration crossing vehicle control threshold, read-out: MEC ATP Production
[7] = HepG2, minimum effective concentration crossing vehicle control threshold, read-out: MEC ECAR
[8] = HepG2, minimum effective concentration crossing vehicle control threshold, read-out: MEC OCR
[9] = HepG2, minimum effective concentration crossing vehicle control threshold, read-out: MEC Reserve Capacity
[10] = HepG2, concentration at which 50% maximum effect is observed, read-out: AC50 ATP Production
[11] = HepG2, concentration at which 50% maximum effect is observed, read-out: AC50 ECAR
[12] = HepG2, concentration at which 50% maximum effect is observed, read-out: AC50 OCR
[13] = HepG2, concentration at which 50% maximum effect is observed, read-out: AC50 Reserve Capacity
[14] = HepG2, minimum effective concentration crossing vehicle control threshold, read-out: MEC Proton Leak
[15] = HepG2, concentration at which 50% maximum effect is observed, read-out: AC50 Proton Leak
[16] = isolated mitochondria, partial inhibition
[17] = HepG2, read-out: AC50 ATP Production
[18] = HepG2, read-out: AC50 Proton Leak
[19] = HepG2, read-out: AC50 Reserve Capacity

Structure (SMILES) | Cmax [1] [nM] | minimal effective concentration (HepG2 cells [3]; [6]) [µM] | minimal effective concentration (HepG2 cells [3]; [8]) [µM] | minimal effective concentration (HepG2 cells [3]; [9]) [µM] | AC50 (HepG2 cells [3]; [10]) [µM] | AC50 (HepG2 cells [3]; [11]) [µM] | AC50 (HepG2 cells [3]; [12]) [µM] | AC50 (HepG2 cells [3]; [13]) [µM] | AC50 (HepG2 cells [2]; read-out: Gal AC50) [µM] | minimal effective concentration (HepG2 cells [2]; read-out: Gal MEC) [µM] | minimal effective concentration (HepG2 cells [3]; [14]) [µM] | AC50 (HepG2 cells [3]; [15]) [µM] | AC50 (HepG2 cells [2]; read-out: Glu AC50) [µM] | minimal effective concentration (HepG2 cells [2]; read-out: Glu MEC) [µM] | also measured
CCN1CCCC1CNC(=O)c1cc(S(=O)(=O)CC)c(N)cc1OC (stereo not drawn) [Amisulpride] | 2560 |  |  |  |  |  |  |  |  |  |  |  |  |  | Effect on cell viability / ATP in Glu and Gal media (in words) (HepG2 cells [2]): did not show any effect on ATP production in any of the media conditions
O=C1CCc2ccc(OCCCCN3CCN(c4cccc(Cl)c4Cl)CC3)cc2N1 [Aripiprazole] | 700 | 3.49 | 2.06 | 0.344 | > 10 | > 10 | > 10 | > 10 | 9.17 | 5.67 |  |  |  |  | minimal effective concentration (HepG2 cells [3]; [7]): 9.2 µM
NC(=O)N1c2ccccc2C=Cc2ccccc21 [Carbamazepine] | 6300 | 165 | 13.1 | 137 | 363 | > 600 | > 600 | > 190 | > 600 | 408 | 97 | > 600 | > 600 |  | IC50 (CII-linked respiration; [16]): 182 µM; IC50 (CI-linked respiration; [16]): 353 µM
CN(C)CCCN1c2ccccc2Sc2ccc(Cl)cc21 [Chlorpromazine] | 900 | 94.2 | 73.4 | 78.4 | > 100 | > 100 | > 100 | > 100 | 16.9 | 10.5 | 31 | > 100 | 15.9 | 10.7 | Most sensitive mechanism / response in permeabilized HepG2 assay (OCR) ([4]; in words): did not show a significant response; minimal effective concentration (HepG2 cells [3]; [7]): 15.6 µM; IC50 (respiratory CI): 400 µM; IC50 (CI-linked respiration; pig brain mitochondria): 116 µM; % MMP ([5]; 20 μM): 88%; % O2 consumption ([5]; 20 μM): 111%; % MMP ([5]; 50 μM): 79%; % O2 consumption ([5]; 50 μM): 125%; % MMP ([5]; 100 μM): 72%; % O2 consumption ([5]; 100 μM): 131%; Mode of action on respiration in isolated RLM (in words) [5]: uncoupler of OXPHOS; Mode of action on respiration in isolated RLM (in words) ([5]; listed as chlorpromazine): uncoupler in basal respiration and an ETC inhibitor under uncoupled respiration; IC50 ([5]; CII-linked, succinate + rotenone, stimulated with 0.25 µM CCCP, 50–400 µM, read-out: IC50 uncoupled respiration): 135 µM; ROS production ([5]; uncoupled respiration, increasing concentrations): reduction in the production of ROS
CN(C)CCCC1(c2ccc(F)cc2)OCc2cc(C#N)ccc21 (stereo not drawn) [Citalopram] | 100 |  |  |  | > 10 | > 10 | > 10 | > 10 | > 10 | 7.11 | 7.17 | > 10 | > 10 | 4.43 | reduction in cell viability (HepG2 cells [2]; 10 µM, both media conditions, 24 h): around 40%
O=C(CCCN1CCC(O)(c2ccc(Cl)cc2)CC1)c1ccc(F)cc1 [Haloperidol] | 20 |  |  |  |  |  |  |  | 78.6 | 26 |  |  | 57.5 | 26.2 | % MMP ([5]; 20 μM): 88%; % O2 consumption ([5]; 20 μM): 85%; % MMP ([5]; 50 μM): 69%; % O2 consumption ([5]; 50 μM): 77%
Nc1nnc(-c2cccc(Cl)c2Cl)c(N)n1 [Lamotrigine] | 4000 | 14 |  |  | 75.7 | > 100 | > 100 | > 100 | > 100 |  |  | > 100 | > 100 |  | IC50 (CII-linked respiration; [16]): 381 µM; IC50 (CI-linked respiration; [16]): 332 µM; Effect on cell viability / ATP in Glu and Gal media (in words) (HepG2 cells [2]): no cytotoxicity
Cc1cc2c(s1)Nc1ccccc1N=C2N1CCN(C)CC1 [Olanzapine] | 20 |  |  |  |  |  |  |  |  |  |  |  |  |  | % MMP ([5]; 20 μM): 92%; % O2 consumption ([5]; 20 μM): 90%; decrease in the MMP ([5]; 50 µM): 10%; % MMP ([5]; 50 μM): 90%; % O2 consumption ([5]; 50 μM): 92%; % MMP ([5]; 50 μM, listed as olanzapine): mild dissipation of the membrane potential
CCC1(c2ccccc2)C(=O)NC(=O)NC1=O [Phenobarbital] |  |  |  |  |  |  |  |  | > 100 |  |  |  | > 100 |  | AC50 (HepG2 cells [3]; [17]): > 100 µM; AC50 (HepG2 cells [3]; HepG2, read-out: AC50 ECAR): > 100 µM; AC50 (HepG2 cells [3]; HepG2, read-out: AC50 OCR): > 100 µM; AC50 (HepG2 cells [3]; [18]): > 100 µM; AC50 (HepG2 cells [3]; [19]): > 100 µM
O=C1NC(=O)C(c2ccccc2)(c2ccccc2)N1 [Phenytoin] | 30000 | 197 | 90.9 | 1.45 | > 200 | > 200 | > 200 | 26.6 | > 200 |  |  | > 200 | > 200 |  | minimal effective concentration (HepG2 cells [3]; [7]): 138 µM
CCC1(c2ccccc2)C(=O)NCNC1=O [Primidone] |  |  |  |  | > 100 | > 100 | > 100 | > 100 | > 100 |  |  | > 100 | > 100 |  | 
OCCOCCN1CCN(C2=Nc3ccccc3Sc3ccccc32)CC1 [Quetiapine] | 1880 | 92.3 | 19 | 26.1 | > 150 |  | > 150 | 124 | 79 | 57.7 |  |  | 76.7 | 49.3 | AC50 [4]: > 150000 nM
COC(=O)[C@H]1[C@H]2C[C@@H]3c4[nH]c5cc(OC)ccc5c4CCN3C[C@H]2C[C@@H](OC(=O)c2cc(OC)c(OC)c(OC)c2)[C@@H]1OC [Reserpine] | 0.4 | 59.4 | 60.3 |  | 77.3 |  | > 100 |  | 79 | 19 | 30 | 36.8 | 48.9 | 6.68 | 
C=C(C)[C@H]1Cc2c(ccc3c2O[C@@H]2COc4cc(OC)c(OC)cc4[C@@H]2C3=O)O1 [Rotenone] |  |  |  |  |  |  |  |  | 0.00605 | 0.002 |  |  | 27.8 | 0.29 | AC50 [4]: 7.1 nM; AC50 (HepG2 cells [3]; [17]): 0.0459 µM; AC50 (HepG2 cells [3]; HepG2, read-out: AC50 ECAR): > 1 µM; AC50 (HepG2 cells [3]; HepG2, read-out: AC50 OCR): 0.0433 µM; AC50 (HepG2 cells [3]; [18]): 0.213 µM; AC50 (HepG2 cells [3]; [19]): 0.0106 µM; minimal effective concentration (HepG2 cells [3]; HepG2, read-out: MEC ATP Production): 0.0159 µM; minimal effective concentration (HepG2 cells [3]; HepG2, read-out: MEC ECAR): 0.0274 µM; minimal effective concentration (HepG2 cells [3]; HepG2, read-out: MEC OCR): 0.0053 µM; minimal effective concentration (HepG2 cells [3]; HepG2, read-out: MEC Proton Leak): 0.012 µM; minimal effective concentration (HepG2 cells [3]; HepG2, read-out: MEC Reserve Capacity): < 0.003 µM
C=CC(N)CCC(=O)O (stereo not drawn) [Vigabatrin] | 4000 |  |  |  | > 1000 | > 1000 | > 1000 | > 1000 | > 1000 |  |  | > 1000 | > 1000 |  | 
O=C1Cc2cc(CCN3CCN(c4nsc5ccccc45)CC3)c(Cl)cc2N1 [Ziprasidone] | 110 | 0.95 |  |  | > 12.7 |  |  |  | > 40 | 28.3 | 0.12 | 2.19 |  |  | IC50 (CII-linked respiration; pig brain mitochondria): 86 µM; IC50 (CI-linked respiration; pig brain mitochondria): 188 µM

Reference: publication PMC10741027, “Risk Assessment of Psychotropic Drugs on Mitochondrial Function Using In Vitro Assays” (Biomedicines, 2023)
